In US8361968B2 (Takeda Pharmaceutical Company Limited, priority 2002, dated 2013):
Square brackets hold non-standard residues; d marks the D form. Peptide text beside a SMILES is read from it. * marks the point of attachment. Propanoyl(3-(3-pyridyl)) = O=C(CCc1cccnc1)*; Arg(Me) = CNC(=N)NCCC[C@H](N)C(=O)O; d4Pal = N[C@H](Cc1ccncc1)C(=O)O; azaGly = NNC(=O)O

How the values were obtained:
[1] = test system: immature rat; assay: Induction of ovulation in immature rat using metastin derivatives; type: in vivo, rats; details: for number of oocytes in average per rat / dose to be administered for induction of ovulation equivalent to hCG: eCG-primed immature female rats; for dose to be administered for induction of ovulation equivalent to hCG: s.c.
Procedure: Equine chorionic gonadotropin (eCG, serotropin, Dainippon Pharmaceutical Co., Ltd.) was dissolved in saline (Otsuka Pharmaceutical Co., Ltd.) in a concentration of 100 IU/mL. Using a 1 mL tuberculin syringe with a 26-gauge needle (both by Terumo Co., Ltd.), eCG was subcutaneously injected into the dorsal area of female Wistar rats of 23 days old after birth (Charles River Japan, Inc.) in a dose of 10 IU/animal, during 9:00 to 10:00 AM. As shown below, the animal was grouped 47 to 48 hours after the eCG injection and the drugs were given to these groups, respectively.
Group B (5 rats): Compound No. 305 was dissolved in saline at 33.3 nmol/mL and the solution was subcutaneously injected into the back in a dose of 6.7 nmol/animal.
Group C (5 rats): Compound No. 305 was dissolved in saline at 10.0 nmol/mL and the solution was subcutaneously injected into the back in a dose of 2.0 nmol/animal.
Group D (5 rats): Compound No. 322 was dissolved in saline at 33.3 nmol/mL and the solution was subcutaneously injected into the back in a dose of 6.7 nmol/animal.
Group E (5 rats): Compound No. 322 was dissolved in saline at 10.0 nmol/mL and the solution was subcutaneously injected into the back in a dose of 2.0 nmol/animal.
Group F (6 rats): Saline was subcutaneously injected into the back in a dose of 200 μL/animal.
After administration of these drugs, the animal was sacrificed by decapitation after 24 to 25 hours to recover blood, bilateral oviducts and uterus. In collecting the blood, 90 μL of 10 KIU/mL aprotinin solution (Trasylol, Bayer) containing 3 mg/ml EDTA had been previously filled in a tube for recovery to prevent blood clotting. After blood recovery, the blood was thoroughly blended and the mixture was centrifuged at 2,000 G for 25 minutes. The supernatant was recovered and used as a plasma sample.
The number of oocytes was counted by referring to the method described in Eur. J. Endocrinol., 138, 594-600 (1998). That is, where retained oocytes in the oviducal ampulla were confirmed by stereomicroscopic observation of the oviduct, the ampulla was punctured with a 27-gauge syringe needle (Terumo) to retrieve the oocytes. After granulosa cells surrounding the oocytes were removed by trypsin treatment, the number of oocytes was counted. Where the retained oocytes in the oviducal ampulla were not confirmed by stereomicroscopic observation of the oviduct, a 27-gauge syringe needle with the polished tip was inserted into the tubal ostium and more than 400 μL of saline was flushed into the oviduct and uterine for rinsing. Then, the presence or absence of oocytes in the effluent was observed.

[2] = molecular target: hOT7T175 (Homo sapiens, UniProt Q969F8, L364H); assay: Intracellular Ca ion level-increasing activity using FLIPR in hOT7T175/CHO; type: cell-based; design: expressed in transfected cells; host or cells: CHO/dhfr- cells, obtained from ATCC; details: relative, Metastin (1-54) = 1
hOT7T175, sequence (Q969F8 whole entry L364H): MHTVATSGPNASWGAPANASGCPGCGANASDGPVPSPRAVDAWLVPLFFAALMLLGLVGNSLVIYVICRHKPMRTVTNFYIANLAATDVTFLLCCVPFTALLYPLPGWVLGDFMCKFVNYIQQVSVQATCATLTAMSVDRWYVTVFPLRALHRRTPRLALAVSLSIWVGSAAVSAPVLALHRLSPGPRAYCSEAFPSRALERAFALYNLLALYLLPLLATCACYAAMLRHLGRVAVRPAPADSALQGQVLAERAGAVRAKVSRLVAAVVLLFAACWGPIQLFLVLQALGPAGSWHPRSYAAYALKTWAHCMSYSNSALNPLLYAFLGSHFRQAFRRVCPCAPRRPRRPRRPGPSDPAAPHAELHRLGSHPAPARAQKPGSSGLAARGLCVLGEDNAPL

Row | Compound | level of estradiol contained in plasma ([1]; 2.0 nmol/animal s.c. (FIG. 21)) | level of progesterone in blood ([1]; 2.0 nmol/animal s.c. (FIG. 22)) | level of estradiol contained in plasma ([1]; 6.7 nmol/animal s.c. (FIG. 21)) | level of progesterone in blood ([1]; 6.7 nmol/animal s.c. (FIG. 22)) | number of oocytes in average per rat ([1]; 2.0 nmol/animal s.c.) | number of oocytes in average per rat ([1]; 6.7 nmol/animal s.c.) | dose to be administered for induction of ovulation equivalent to hCG [1] | Specific Activity (intracellular Ca ion level-increasing activity) [2] | rats ovulated ([1]; 2.0 nmol/animal s.c.)
1 | CNC(=N)NCCC[C@H](NC(=O)[C@H](CC(C)C)NC(=O)NNC(=O)[C@H](Cc1ccccc1)NC(=O)[C@H](CO)NC(=O)[C@H](CC(N)=O)NC(=O)[C@@H](Cc1ccncc1)NC(=O)[C@H](N)Cc1ccc(O)cc1)C(=O)N[C@@H](Cc1ccccc1)C(N)=O [Compound No. 305, D-Tyr-D-Pya(4)-Asn-Ser-Phe-AzaGly-Leu-Arg(Me)-Phe-NH2] (H-[dY][d4Pal]NSF[azaGly]L[Arg(Me)]F-NH2) | no difference | less than a half of the level in Group A | no difference | less than a half of the level in Group A | 29.4 oocytes | 32.6 oocytes | at least 2.0 nmol/animal | 5 | –
2 | CNC(=N)NCCC[C@H](NC(=O)[C@H](CC(C)C)NC(=O)NNC(=O)[C@H](Cc1ccccc1)NC(=O)[C@H](CO)NC(=O)[C@H](CC(N)=O)NC(=O)CCc1cccnc1)C(=O)N[C@@H](Cc1ccccc1)C(N)=O [Compound No. 322, 3-Pyridylpropionyl-Asn-Ser-Phe-AzaGly-Leu-Arg(Me)-Phe-NH2] ({Propanoyl(3-(3-pyridyl))}-NSF[azaGly]L[Arg(Me)]F-NH2) | tendency to show a higher level in rats with no ovulation induction | very low level | no difference | less than a half of the level in Group A | 11.6 oocytes | 29.6 oocytes | at least 6.7 nmol/animal | 1 | 3 out of 5
